Tests used:
Experiment in all cases: KINOMEscan kinase profiling
Type in all cases: binding
AMPK-alpha2 = biological target: T1, AMPK-alpha2 (Homo sapiens, UniProt P54646); details: read-out: %Inhibition by 10 μM SPA70
T1 construct: purchased DiscoverX (Ambit Biosciences) KINOMEscan
Method in brief: (§1)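 KINOMEscan profiling followed a published protocol. Kinases whose inhibition exceeded a set cut-off were then tested in a dilution series beginning at 30 µM.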

AXL = biological target: T2, AXL (Homo sapiens, UniProt P30530); details: read-out: %Inhibition by 10 μM SPA70
T2 construct: purchased DiscoverX (Ambit Biosciences) KINOMEscan
Method in brief: as §1

BRSK2 = biological target: T3, BRSK2 (Homo sapiens, UniProt Q8IWQ3); details: read-out: %Inhibition by 10 μM SPA70
T3 construct: purchased DiscoverX (Ambit Biosciences) KINOMEscan
Method in brief: as §1

BTK = biological target: T4, BTK (Homo sapiens, UniProt Q06187)
T4 construct: purchased DiscoverX (Ambit Biosciences) KINOMEscan
Method in brief: as §1

CAMK2D = biological target: T5, CAMK2D (Homo sapiens, UniProt Q13557); details: read-out: %Inhibition by 10 μM SPA70
T5 construct: purchased DiscoverX (Ambit Biosciences) KINOMEscan
Method in brief: as §1

CAMK2G = biological target: T6, CAMK2G (Homo sapiens, UniProt Q13555); details: read-out: %Inhibition by 10 μM SPA70
T6 construct: purchased DiscoverX (Ambit Biosciences) KINOMEscan
Method in brief: as §1

CAMK4 = biological target: T7, CAMK4 (Homo sapiens, UniProt Q16566); details: read-out: %Inhibition by 10 μM SPA70
T7 construct: purchased DiscoverX (Ambit Biosciences) KINOMEscan
Method in brief: as §1

CDK4-cyclinD3 = biological target: T8, CDK4-cyclinD3 (Homo sapiens, UniProt P11802); details: read-out: %Inhibition by 10 μM SPA70
T8 construct: purchased DiscoverX (Ambit Biosciences) KINOMEscan
Method in brief: as §1

CDKL5 = biological target: T9, CDKL5 (Homo sapiens, UniProt O76039); details: read-out: %Inhibition by 10 μM SPA70
T9 construct: purchased DiscoverX (Ambit Biosciences) KINOMEscan
Method in brief: as §1

CSNK1G2 = biological target: T10, CSNK1G2 (Homo sapiens, UniProt P78368)
T10 construct: purchased DiscoverX (Ambit Biosciences) KINOMEscan
Method in brief: as §1

CSNK1G3 = biological target: T11, CSNK1G3 (Homo sapiens, UniProt Q9Y6M4)
T11 construct: purchased DiscoverX (Ambit Biosciences) KINOMEscan
Method in brief: as §1

DCAMKL2 = biological target: T12, DCAMKL2 (Homo sapiens, UniProt Q8N568); details: read-out: %Inhibition by 10 μM SPA70
T12 construct: purchased DiscoverX (Ambit Biosciences) KINOMEscan
Method in brief: as §1

DRAK2 = biological target: T13, DRAK2 (Homo sapiens, UniProt O94768); details: read-out: %Inhibition by 10 μM SPA70
T13 construct: purchased DiscoverX (Ambit Biosciences) KINOMEscan
Method in brief: as §1

DYRK2 = biological target: T14, DYRK2 (Homo sapiens, UniProt Q92630); details: read-out: %Inhibition by 10 μM SPA70
T14 construct: purchased DiscoverX (Ambit Biosciences) KINOMEscan
Method in brief: as §1

EPHA4 = biological target: T15, EPHA4 (Homo sapiens, UniProt P54764); details: read-out: %Inhibition by 10 μM SPA70
T15 construct: purchased DiscoverX (Ambit Biosciences) KINOMEscan
Method in brief: as §1

EPHB4 = biological target: T16, EPHB4 (Homo sapiens, UniProt P54760); details: read-out: %Inhibition by 10 μM SPA70
T16 construct: purchased DiscoverX (Ambit Biosciences) KINOMEscan
Method in brief: as §1

EPHB6 = biological target: T17, EPHB6 (Homo sapiens, UniProt O15197); details: read-out: %Inhibition by 10 μM SPA70
T17 construct: purchased DiscoverX (Ambit Biosciences) KINOMEscan
Method in brief: as §1

FLT1 = biological target: T18, FLT1 (Homo sapiens, UniProt P17948); details: read-out: %Inhibition by 10 μM SPA70
T18 construct: purchased DiscoverX (Ambit Biosciences) KINOMEscan
Method in brief: as §1

FRK = biological target: T19, FRK (Homo sapiens, UniProt P42685); details: read-out: %Inhibition by 10 μM SPA70
T19 construct: purchased DiscoverX (Ambit Biosciences) KINOMEscan
Method in brief: as §1

GAK = biological target: T20, GAK (Homo sapiens, UniProt O14976); details: read-out: %Inhibition by 10 μM SPA70
T20 construct: purchased DiscoverX (Ambit Biosciences) KINOMEscan
Method in brief: as §1

GSK3B = biological target: T21, GSK3B (Homo sapiens, UniProt P49841)
T21 construct: purchased DiscoverX (Ambit Biosciences) KINOMEscan
Method in brief: as §1

INSR = biological target: T22, INSR (Homo sapiens, UniProt P06213); details: read-out: %Inhibition by 10 μM SPA70
T22 construct: purchased DiscoverX (Ambit Biosciences) KINOMEscan
Method in brief: as §1

[1] = biological target: T23, JAK1(JH2domain-pseudokinase) (Homo sapiens, UniProt P23458)
T23 construct: JAK1(JH2domain-pseudokinase); purchased DiscoverX (Ambit Biosciences) KINOMEscan
Method in brief: as §1

[2] = biological target: T24, JAK3(JH1domain-catalytic) (Homo sapiens, UniProt P52333); details: read-out: %Inhibition by 10 μM SPA70
T24 construct: JAK3(JH1domain-catalytic); purchased DiscoverX (Ambit Biosciences) KINOMEscan
Method in brief: as §1

JNK2 = biological target: T25, JNK2 (Homo sapiens, UniProt P45984)
T25 construct: purchased DiscoverX (Ambit Biosciences) KINOMEscan
Method in brief: as §1

MARK1 = biological target: T26, MARK1 (Homo sapiens, UniProt Q9P0L2); details: read-out: %Inhibition by 10 μM SPA70
T26 construct: purchased DiscoverX (Ambit Biosciences) KINOMEscan
Method in brief: as §1

MYLK = biological target: T27, MYLK (Homo sapiens, UniProt Q15746); details: read-out: %Inhibition by 10 μM SPA70
T27 construct: purchased DiscoverX (Ambit Biosciences) KINOMEscan
Method in brief: as §1

NLK = biological target: T28, NLK (Homo sapiens, UniProt Q9UBE8); details: read-out: %Inhibition by 10 μM SPA70
T28 construct: purchased DiscoverX (Ambit Biosciences) KINOMEscan
Method in brief: as §1

PAK3 = biological target: T29, PAK3 (Homo sapiens, UniProt O75914); details: read-out: %Inhibition by 10 μM SPA70
T29 construct: purchased DiscoverX (Ambit Biosciences) KINOMEscan
Method in brief: as §1

PAK4 = biological target: T30, PAK4 (Homo sapiens, UniProt O96013); details: read-out: %Inhibition by 10 μM SPA70
T30 construct: purchased DiscoverX (Ambit Biosciences) KINOMEscan
Method in brief: as §1

PFTAIRE2 = biological target: T31, PFTAIRE2 (Homo sapiens, UniProt Q96Q40); details: read-out: %Inhibition by 10 μM SPA70
T31 construct: purchased DiscoverX (Ambit Biosciences) KINOMEscan
Method in brief: as §1

PIM1 = biological target: T32, PIM1 (Homo sapiens, UniProt P11309); details: read-out: %Inhibition by 10 μM SPA70
T32 construct: purchased DiscoverX (Ambit Biosciences) KINOMEscan
Method in brief: as §1

PKAC-alpha = biological target: T33, PKAC-alpha (Homo sapiens, UniProt P17612)
T33 construct: purchased DiscoverX (Ambit Biosciences) KINOMEscan
Method in brief: as §1

PRKCH = biological target: T34, PRKCH (Homo sapiens, UniProt P24723); details: read-out: %Inhibition by 10 μM SPA70
T34 construct: purchased DiscoverX (Ambit Biosciences) KINOMEscan
Method in brief: as §1

ROCK1 = biological target: T35, ROCK1 (Homo sapiens, UniProt Q13464); details: read-out: %Inhibition by 10 μM SPA70
T35 construct: purchased DiscoverX (Ambit Biosciences) KINOMEscan
Method in brief: as §1

[3] = biological target: T36, RSK2(Kin.Dom.1-N-terminal) (Homo sapiens, UniProt P51812); details: read-out: %Inhibition by 10 μM SPA70
T36 construct: RSK2(Kin.Dom.1-N-terminal); purchased DiscoverX (Ambit Biosciences) KINOMEscan
Method in brief: as §1

[4] = biological target: T37, RSK3(Kin.Dom.1-N-terminal) (Homo sapiens, UniProt Q15349); details: read-out: %Inhibition by 10 μM SPA70
T37 construct: RSK3(Kin.Dom.1-N-terminal); purchased DiscoverX (Ambit Biosciences) KINOMEscan
Method in brief: as §1

SRPK1 = biological target: T38, SRPK1 (Homo sapiens, UniProt Q96SB4); details: read-out: %Inhibition by 10 μM SPA70
T38 construct: purchased DiscoverX (Ambit Biosciences) KINOMEscan
Method in brief: as §1

ULK1 = biological target: T39, ULK1 (Homo sapiens, UniProt O75385)
T39 construct: purchased DiscoverX (Ambit Biosciences) KINOMEscan
Method in brief: as §1

[5] = read-out: %Inhibition by 10 μM SPA70

T21 sequence (P49841 whole entry): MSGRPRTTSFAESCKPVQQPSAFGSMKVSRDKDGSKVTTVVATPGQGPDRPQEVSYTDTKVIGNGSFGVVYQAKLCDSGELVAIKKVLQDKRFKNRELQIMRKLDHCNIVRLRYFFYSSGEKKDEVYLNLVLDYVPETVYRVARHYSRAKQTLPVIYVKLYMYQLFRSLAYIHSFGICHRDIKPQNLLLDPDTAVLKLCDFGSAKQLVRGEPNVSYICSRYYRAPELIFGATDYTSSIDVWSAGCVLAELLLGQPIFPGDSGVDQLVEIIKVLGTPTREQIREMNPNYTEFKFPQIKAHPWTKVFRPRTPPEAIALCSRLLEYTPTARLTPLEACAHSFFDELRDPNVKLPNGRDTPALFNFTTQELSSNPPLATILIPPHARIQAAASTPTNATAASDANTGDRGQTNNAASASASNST
T30 sequence (O96013 whole entry): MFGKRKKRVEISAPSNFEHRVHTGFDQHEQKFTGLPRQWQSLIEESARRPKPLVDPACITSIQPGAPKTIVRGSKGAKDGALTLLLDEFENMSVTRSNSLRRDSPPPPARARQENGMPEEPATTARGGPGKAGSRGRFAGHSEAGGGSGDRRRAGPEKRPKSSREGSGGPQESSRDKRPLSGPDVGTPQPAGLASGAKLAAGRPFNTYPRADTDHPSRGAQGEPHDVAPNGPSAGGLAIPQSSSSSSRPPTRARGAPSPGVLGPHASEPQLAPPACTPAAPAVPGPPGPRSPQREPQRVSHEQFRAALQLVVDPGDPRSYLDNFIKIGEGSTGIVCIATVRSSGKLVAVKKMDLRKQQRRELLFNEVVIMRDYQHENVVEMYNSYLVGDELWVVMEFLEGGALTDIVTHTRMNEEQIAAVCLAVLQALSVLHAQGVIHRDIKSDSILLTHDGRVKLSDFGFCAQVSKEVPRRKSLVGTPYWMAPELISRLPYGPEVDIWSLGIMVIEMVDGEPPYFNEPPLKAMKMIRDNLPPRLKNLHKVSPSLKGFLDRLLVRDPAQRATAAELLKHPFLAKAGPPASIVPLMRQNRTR
T24 sequence (P52333 822-1124 limits assumed): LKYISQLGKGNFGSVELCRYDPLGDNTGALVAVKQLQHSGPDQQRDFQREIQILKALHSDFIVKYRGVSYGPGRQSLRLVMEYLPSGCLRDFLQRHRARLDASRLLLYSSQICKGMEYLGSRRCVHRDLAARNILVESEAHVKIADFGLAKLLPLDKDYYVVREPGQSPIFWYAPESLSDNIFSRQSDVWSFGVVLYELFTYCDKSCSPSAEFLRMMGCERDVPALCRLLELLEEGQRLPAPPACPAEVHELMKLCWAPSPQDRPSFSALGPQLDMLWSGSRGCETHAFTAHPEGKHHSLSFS
T5 sequence (Q13557 whole entry): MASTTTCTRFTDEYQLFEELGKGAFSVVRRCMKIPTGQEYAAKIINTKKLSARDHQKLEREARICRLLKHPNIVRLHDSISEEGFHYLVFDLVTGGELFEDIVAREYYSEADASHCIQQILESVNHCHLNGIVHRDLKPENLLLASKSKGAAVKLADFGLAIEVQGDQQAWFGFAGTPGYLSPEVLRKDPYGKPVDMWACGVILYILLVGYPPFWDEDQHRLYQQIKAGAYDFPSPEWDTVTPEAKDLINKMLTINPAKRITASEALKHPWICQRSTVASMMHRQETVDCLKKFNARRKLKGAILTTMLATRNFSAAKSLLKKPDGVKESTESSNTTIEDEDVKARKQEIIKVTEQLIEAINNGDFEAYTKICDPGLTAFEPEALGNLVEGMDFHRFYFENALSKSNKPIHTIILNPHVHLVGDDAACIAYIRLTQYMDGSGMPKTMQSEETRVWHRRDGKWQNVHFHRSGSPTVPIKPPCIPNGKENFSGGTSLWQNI
T28 sequence (Q9UBE8 whole entry): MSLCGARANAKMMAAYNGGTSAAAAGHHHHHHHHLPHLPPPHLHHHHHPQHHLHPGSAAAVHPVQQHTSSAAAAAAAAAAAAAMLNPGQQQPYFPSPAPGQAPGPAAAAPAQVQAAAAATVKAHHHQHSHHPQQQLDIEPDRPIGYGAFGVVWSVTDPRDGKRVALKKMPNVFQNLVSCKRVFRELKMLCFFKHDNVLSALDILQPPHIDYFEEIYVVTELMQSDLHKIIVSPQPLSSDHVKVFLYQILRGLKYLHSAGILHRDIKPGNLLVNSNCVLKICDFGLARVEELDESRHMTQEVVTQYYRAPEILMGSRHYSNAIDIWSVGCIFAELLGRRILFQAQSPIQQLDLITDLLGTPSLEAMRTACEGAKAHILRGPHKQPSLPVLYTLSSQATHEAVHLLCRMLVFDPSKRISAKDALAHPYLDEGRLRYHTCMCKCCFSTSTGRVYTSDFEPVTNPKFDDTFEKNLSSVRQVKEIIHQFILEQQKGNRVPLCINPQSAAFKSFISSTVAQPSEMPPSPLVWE
T36 sequence (P51812 1-397 limits assumed): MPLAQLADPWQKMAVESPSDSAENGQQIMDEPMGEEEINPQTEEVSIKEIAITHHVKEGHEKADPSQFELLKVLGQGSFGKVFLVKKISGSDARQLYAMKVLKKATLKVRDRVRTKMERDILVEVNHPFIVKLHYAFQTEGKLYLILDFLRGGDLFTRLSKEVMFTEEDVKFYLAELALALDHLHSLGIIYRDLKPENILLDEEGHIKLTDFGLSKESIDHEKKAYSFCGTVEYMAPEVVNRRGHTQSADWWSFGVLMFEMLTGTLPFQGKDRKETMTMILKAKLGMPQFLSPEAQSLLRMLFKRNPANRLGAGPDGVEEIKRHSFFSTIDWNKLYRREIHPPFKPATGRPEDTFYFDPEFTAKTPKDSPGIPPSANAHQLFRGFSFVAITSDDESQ
T13 sequence (O94768 whole entry): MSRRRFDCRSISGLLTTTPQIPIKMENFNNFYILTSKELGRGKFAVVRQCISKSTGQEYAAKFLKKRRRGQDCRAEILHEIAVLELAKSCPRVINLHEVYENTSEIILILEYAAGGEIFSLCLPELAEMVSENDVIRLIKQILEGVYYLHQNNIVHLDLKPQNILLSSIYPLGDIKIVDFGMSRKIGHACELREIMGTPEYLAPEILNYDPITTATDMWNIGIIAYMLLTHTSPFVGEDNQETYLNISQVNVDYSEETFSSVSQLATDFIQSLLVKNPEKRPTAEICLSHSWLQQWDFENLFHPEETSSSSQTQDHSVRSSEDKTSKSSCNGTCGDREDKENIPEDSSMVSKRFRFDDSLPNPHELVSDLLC
T7 sequence (Q16566 whole entry): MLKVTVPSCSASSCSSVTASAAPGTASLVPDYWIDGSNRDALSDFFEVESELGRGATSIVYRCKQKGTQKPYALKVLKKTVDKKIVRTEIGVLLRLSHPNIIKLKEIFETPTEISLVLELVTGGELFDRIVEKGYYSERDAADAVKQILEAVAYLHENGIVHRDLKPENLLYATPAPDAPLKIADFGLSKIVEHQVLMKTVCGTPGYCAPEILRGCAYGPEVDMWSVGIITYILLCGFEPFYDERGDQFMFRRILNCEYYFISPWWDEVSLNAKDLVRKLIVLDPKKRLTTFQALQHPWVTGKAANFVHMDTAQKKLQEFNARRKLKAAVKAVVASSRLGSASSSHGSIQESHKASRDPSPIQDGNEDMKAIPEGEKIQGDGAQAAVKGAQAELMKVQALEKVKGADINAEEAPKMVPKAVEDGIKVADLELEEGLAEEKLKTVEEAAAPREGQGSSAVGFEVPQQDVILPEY
T38 sequence (Q96SB4 whole entry): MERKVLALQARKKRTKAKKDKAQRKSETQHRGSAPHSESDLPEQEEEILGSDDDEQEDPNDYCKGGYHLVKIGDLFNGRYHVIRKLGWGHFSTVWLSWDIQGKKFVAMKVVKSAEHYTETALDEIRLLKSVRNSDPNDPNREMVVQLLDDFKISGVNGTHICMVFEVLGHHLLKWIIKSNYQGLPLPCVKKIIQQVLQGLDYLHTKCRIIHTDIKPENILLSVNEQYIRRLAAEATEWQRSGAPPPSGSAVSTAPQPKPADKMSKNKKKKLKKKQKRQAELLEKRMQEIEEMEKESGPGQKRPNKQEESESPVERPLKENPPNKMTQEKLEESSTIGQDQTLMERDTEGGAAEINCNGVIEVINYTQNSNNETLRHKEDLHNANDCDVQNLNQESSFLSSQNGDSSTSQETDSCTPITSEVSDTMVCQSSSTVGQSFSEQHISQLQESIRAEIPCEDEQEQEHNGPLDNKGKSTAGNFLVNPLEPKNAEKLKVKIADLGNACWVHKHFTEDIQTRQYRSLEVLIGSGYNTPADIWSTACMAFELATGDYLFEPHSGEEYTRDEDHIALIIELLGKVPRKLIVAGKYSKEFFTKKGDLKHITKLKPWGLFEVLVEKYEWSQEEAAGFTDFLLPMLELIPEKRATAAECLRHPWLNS
T1 sequence (P54646 whole entry): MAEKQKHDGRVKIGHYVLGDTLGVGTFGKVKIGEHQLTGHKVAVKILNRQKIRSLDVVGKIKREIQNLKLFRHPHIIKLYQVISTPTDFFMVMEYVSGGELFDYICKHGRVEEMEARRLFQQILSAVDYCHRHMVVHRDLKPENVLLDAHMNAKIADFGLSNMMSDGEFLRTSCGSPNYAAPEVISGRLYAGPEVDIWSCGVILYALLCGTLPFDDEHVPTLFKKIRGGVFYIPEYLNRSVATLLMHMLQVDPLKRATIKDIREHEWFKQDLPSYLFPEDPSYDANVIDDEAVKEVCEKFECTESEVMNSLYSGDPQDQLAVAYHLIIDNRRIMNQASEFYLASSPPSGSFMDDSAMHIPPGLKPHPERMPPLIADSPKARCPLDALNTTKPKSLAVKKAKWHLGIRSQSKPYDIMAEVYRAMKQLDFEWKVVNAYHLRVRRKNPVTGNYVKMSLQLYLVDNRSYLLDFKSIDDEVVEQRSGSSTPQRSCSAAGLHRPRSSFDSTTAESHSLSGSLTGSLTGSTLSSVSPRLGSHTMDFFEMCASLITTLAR

COc1ccc(OC)c(-n2nnc(S(=O)(=O)c3ccc(C(C)(C)C)cc3)c2C)c1 [SPA70]
inhibition at 10 µM (AMPK-alpha2): 9%
inhibition at 10 µM (AXL): 0%
inhibition at 10 µM (BRSK2): 0%
%Inhibition by 10 μM SPA70 (BTK): 23%
inhibition at 10 µM (CAMK2D): 0%
inhibition at 10 µM (CAMK2G): 1%
inhibition at 10 µM (CAMK4): 0%
inhibition at 10 µM (CDK4-cyclinD3): 19%
inhibition at 10 µM (CDKL5): 8%
%Inhibition by 10 μM SPA70 (CSNK1G2): 0%
%Inhibition by 10 μM SPA70 (CSNK1G3): 0%
inhibition at 10 µM (DCAMKL2): 0%
inhibition at 10 µM (DRAK2): 5%
inhibition at 10 µM (DYRK2): 12%
inhibition at 10 µM (EPHA4): 0%
inhibition at 10 µM (EPHB4): 0%
inhibition at 10 µM (EPHB6): 0%
inhibition at 10 µM (FLT1): 0%
inhibition at 10 µM (FRK): 0%
inhibition at 10 µM (GAK): 3%
%Inhibition by 10 μM SPA70 (GSK3B): not inhibited
inhibition at 10 µM (GSK3B; [5]): 0%
inhibition at 10 µM (INSR): 0%
%Inhibition by 10 μM SPA70 [1]: 0%
inhibition at 10 µM [2]: 5%
%Inhibition by 10 μM SPA70 (JNK2): 0%
inhibition at 10 µM (MARK1): 0%
inhibition at 10 µM (MYLK): 0%
inhibition at 10 µM (NLK): 16%
inhibition at 10 µM (PAK3): 0%
inhibition at 10 µM (PAK4): 0%
inhibition at 10 µM (PFTAIRE2): 0%
inhibition at 10 µM (PIM1): 0%
%Inhibition by 10 μM SPA70 (PKAC-alpha): not inhibited
inhibition at 10 µM (PKAC-alpha; [5]): 0%
inhibition at 10 µM (PRKCH): 13%
inhibition at 10 µM (ROCK1): 3%
inhibition at 10 µM [3]: 11%
inhibition at 10 µM [4]: 0%
inhibition at 10 µM (SRPK1): 0%
%Inhibition by 10 μM SPA70 (ULK1): 5%
